# Experiments:
# U251MG glioma cells = assay: Cell proliferation, counting in a Neubauer chamber; format: cell-based, human; details: increasing concentrations, several days (FIG. 1A)
# Protocol: 20,000 U251MG glioblastoma cells or human astrocytic cells (ScienCell) were plated into 96-well plates. After 24 h cells were treated with rhHMGB1 (Sigma Aldrich) or rat recombinant HMGB1 (generously provided by Angelika Bierhaus, Heidelberg, Germany), and TRAIL (for 24 h) or Temozolomide (for 72 h) alone or in combination, respectively. Cell survival was measured by crystal violet staining as described previously (Gdynia et al., 2007). Cell proliferation was assessed by seeding 50,000 U251 MG cells in 6 cm culture plates and treatment with rhHMGB1, followed by counting the cells in a Neubauer chamber at day 0, 2, 4 and 5.
# [1] = system: NCH421 K glioblastoma stem-cell-like cells; assay: Cell morphology / spheroid cell aggregates; format: cell-based; details: FIG. 12B
# JNK1/2 = assay: Western blot analysis of JNK1/2 phosphorylation; format: cell-based, human; details: 24 h (FIG. 3C)
# Protocol: The U251 MG tumor cells were lysed in lysis buffer containing 20 mmol/L Tris-HCl (pH 7.4), 137 mmol/L NaCl, 10% (v/v) glycerine, 1% Triton X-100, 2 mmol/L EDTA, 100 mmol/L phenylmethylsulfonyl fluoride, and protease inhibitors (Complete mini; Roche Molecular Biochemicals). For the detection of phosphoprotein levels, 10 mmol/L NaPPi, 50 mmol/L NaF, and 20 mmol/L NaVO4 were added to the lysis buffer. After 15 min incubation on ice, the lysates were centrifuged at 14,000×g for 10 min. The total protein concentration of the lysates was measured using the Bradford assay (Bio-Rad). Soluble protein (25-100 μg per lane) was separated on 10% to 15% polyacrylamide gels and blotted onto nitrocellulose by standard procedures. […]
# U251 MG cells = assay: Subcellular fractionation and Western blot: cytochrome c release, caspase 3 cleavage; format: cell-based, human; details: rhHMGB1 80 nM, 24 h (FIG. 6)
# Protocol: The U251 MG tumor cells were lysed in lysis buffer containing 20 mmol/L Tris-HCl (pH 7.4), 137 mmol/L NaCl, 10% (v/v) glycerine, 1% Triton X-100, 2 mmol/L EDTA, 100 mmol/L phenylmethylsulfonyl fluoride, and protease inhibitors (Complete mini; Roche Molecular Biochemicals). For the detection of phosphoprotein levels, 10 mmol/L NaPPi, 50 mmol/L NaF, and 20 mmol/L NaVO4 were added to the lysis buffer. After 15 min incubation on ice, the lysates were centrifuged at 14,000×g for 10 min. The total protein concentration of the lysates was measured using the Bradford assay (Bio-Rad). Soluble protein (25-100 μg per lane) was separated on 10% to 15% polyacrylamide gels and blotted onto nitrocellulose by standard procedures. The membranes were washed, incubated with primary antibody as indicated: mouse anti-human caspase-3 (1:500, Imgenex, San Diego, Calif.); polyclonal rabbit anti-human phosphorylated p44/42 mitogen-activated protein kinase and polyclonal rabbit anti-human phosphorylated stress-activated protein kinase/JNK (1:1,000, Cell Signaling Technology, Inc.); polyclonal anti-rabbit JNK 54/46 (1:1,000, Cell Signaling Technology, Inc.); polyclonal rabbit anti-human IkBalpha (1:500, Santa Cruz Biotechnology, Inc.); mouse monoclonal anti-human BNIP3 (1:10,000, R&D Systems, Inc.); mouse monoclonal anti-human phosphorylated-histone H2A.X (Upstate, Inc.); mouse monoclonal anti-human cytochrome c (1:100, BD Biosciences Pharmingen GmbH, Heidelberg, Germany); mouse anti-human cytochrome c oxidase complex IV (1:100, Molecular Probes, Invitrogen, Karlsruhe, Germany); polyclonal rabbit antimalondialdehyde (1:250, Calbiochem, Merck, Darmstadt, Germany) and mouse monoclonal antibodies to β-tubulin or β-actin (1:3,000, Sigma Chemical Co., St. Louis, Mo.), washed, and incubated with the appropriate secondary antibody (1:3,000; horseradish peroxidase-conjugated, Bio-Rad). Bound antibodies were visualized using an enhanced chemiluminescence detection system (GE-Healthcare, Uppsala, Sweden).
# Enrichment of mitochondrial fractions was performed using the ApoAlert Cell Fractionation Kit (Clontech, Mountain View, Calif.) as described previously (Gdynia et al., 2008). Briefly, after centrifugation and several washing steps, the cell pellet was resuspended in ice-cold 1× Fractionation Buffer Mix containing protease inhibitors (Complete mini; Roche Molecular Biochemicals, Indianapolis, Ind.) and 1 mM 1,4-Dithio-DL-threitol solution (DTT). After 10 min incubation on ice, cells were homogenized with a dounce tissue grinder. Efficiency of homogenization was controlled by microscopy. The homogenate was centrifuged at 700×g for 10 min at 4° C. and the resulting supernatant at 10,000×g for 25 min at 4° C. […]
# mitochondrial DNA = assay: Dot blot analysis of mitochondrial DNA; format: cell-based, human; details: 24 h (FIG. 11A)
# Protocol: Subcellular fractionation was performed as described below. The DNA of the resulting mitochondrial suspension was purified by a modified method described in Almeida et al. (Almeida et al., 2006). Briefly, contaminating nuclear DNA was precipitated by lysis of the mitochondria in a buffer of 50 mM glucose, 1.5 mM EDTA, 25 mM Tris-HCl, pH 7.4 with 20% SDS and 3 M K-acetate. After centrifugation (10 min, 4° C., 10.000×g) the supernatant was digested with 20 mg/ml proteinase K for 1 h at 37° C. and mtDNA was extracted twice with phenol-chloroform and one additional time with chloroform, followed by precipitation of mtDNA from the aqueous phase by adding two volumes of isopropanol. The pellet was washed with 80% ethanol at −20° C. After drying the mtDNA was solved in TE-buffer (10 mM Tris-HCl, pH 7.4, 1 mM EDTA, pH 8.0). After treatment of the samples with 100 μg/ml ribonuclease A (RNAse A) for 1 h at 37° C., the phenol-chloroform extraction steps were repeated and mtDNA was precipitated by adding 2 volumes of 100% ethanol and 1/10 volume 5 M NaCl at −20° C. overnight. After a centrifugation step for 20 min at 4° C. with 13,000 rpm and washing the pellet 2× with 80% ethanol, followed by drying, the pellet was solved in ddH2O. The purified DNA was digested overnight with BamHI and loaded on a 0.5% agarose gel. […] Labeling efficiency was determined as described in the kit. […]
substance,measurement,setting,value
rhHMGB1: recombinant human High Mobility Group B1 protein (Sigma Aldrich),induction of cell death,U251MG glioma cells,induction of cell death even at low nanomolar concentrations
same,tumor cell proliferation,U251MG glioma cells,strong inhibition
same,"anti-proliferative effect, spheroid cell aggregates",[1],clearly smaller and fewer spheroid cell aggregates
same,phosphorylation of c-Jun N-terminal kinase 1/2 (JNK),JNK1/2,continuous and dose dependent phosphorylation
same,activation of caspase 3,U251 MG cells,neither activation of caspase 3
same,release of cytochrome c,U251 MG cells,nor release of cytochrome c was observed
same,mitochondrial DNA content,mitochondrial DNA,substantial and rapid depletion of mtDNA

# — patent US20110123483A1, “HMGB1 FOR CANCER TREATMENT” (DEUTSCHES KREBSFORSCHUNGSZENTRUM, priority 2009, published 2011)
